Measurements reported in patent US9474740B2, “Ectoparasite control agent” (Nippon Soda Co., Ltd., priority 2013, dated 2016).

Assays:
[1] = system: fleas (Ctenocephalides felis); test: Parasite extermination test of dog in vivo, C. felis; conditions: topical spot-on 20 mg/kg
Procedure: Each type of the test compounds was applied to four dogs. One day before treatment (−1 day) of the test compound, about 50 adults of Rhipicephalus sanguineus to which food was not given, per dog, were parasitized. It was estimated that 50% of the 50 ticks were male and 50% of the 50 ticks were female.
Separately, the tested compound was dissolved in a mixed solvent consisting of 80% by volume of benzyl alcohol and 20% by volume of isopropyl myristate such that the concentration became 50 mg/ml, whereby a test solution was prepared.
On zeroth day, several different spots of the interscapular region were treated with the test solution by “topical spot-on” such that the test compound was treated per 20 mg/kg per body weight of a dog. For comparison, a negative control was also prepared.
In addition, on the 12th and 28th day, 50 adult fleas (Ctenocephalides felis) to which food was not given were parasitized together.
On the 7th, 14th, 21 st, 30th and 35th day, 48 hours after each was parasitized, survival of the ticks and mites were observed, and the ticks and mites were removed from the dogs. The ticks were classified according to whether or not the ticks were attached, and the survival state was determined.
In the evaluation of efficacy, the same geometric mean calculation as that in Test Example 2 was used.

[2] = system: Rhipicephalus sanguineus; test: Parasite extermination test of dog in vivo, R. sanguineus
Procedure: Each type of the test compounds was applied to four dogs. One day before treatment (−1 day) of the test compound, about 50 adults of Rhipicephalus sanguineus to which food was not given, per dog, were parasitized. It was estimated that 50% of the 50 ticks were male and 50% of the 50 ticks were female. Separately, the tested compound was dissolved in a mixed solvent consisting of 80% by volume of benzyl alcohol and 20% by volume of isopropyl myristate such that the concentration became 50 mg/ml, whereby a test solution was prepared. On zeroth day, several different spots of the interscapular region were treated with the test solution by “topical spot-on” such that the test compound was treated per 20 mg/kg per body weight of a dog. For comparison, a negative control was also prepared. In order to evaluate the treatment against the parasitized ticks, survival of the ticks were observed on the 2nd day (48 hours after the treatment). To evaluate the durability, on the 5th, 12th, 19th, and 28th day, 50 ticks to which food was not given, per dog, were parasitized again. On the 7th, 14th, 21 st, 30th and 35th day, 48 hours after each was parasitized, survival of the ticks and mites were observed, and the ticks and mites were removed from the dogs. The ticks were classified according to whether or not the ticks were attached, and the survival state was determined. In the evaluation of efficacy, the same geometric mean calculation as that in Test Example 2 was used. […] In addition, for Test Compound 1 to 32, the test compounds were treated per 5 mg/kg per body weight of an individual with respect to a dog.

[3] = system: American dog mites (Dermacentor variabilis) in nymph stage; test: Acaricidal test of rodent (RAT) in vivo; conditions: Sprague-Dawley rat, topical 0.05 ml in acetone, effective component concentration of 1% or less (10 mg/ml), 48 hours after the treatment, read-out: efficacy (reduction % in the number of surviving mites)
Source text: Evaluation of the test compounds can be performed by a method obtained by modifying the analysis method described in “J. Med. Entomol. 43 (3) 526-532 (2006)”. In the analysis method, other mite species (in references, described as a mite of Amblyomma americanum) can be also used, and, for example, other mite species such as a mite of Dermacentor variabilis can be also used. A mite-holding unit (which was configured of small size nipples, a crew cap with a vent, and a reinforcing rubber washer) was attached to the back of an adult Sprague-Dawley rat. After attaching the holding unit, 0.05 ml of a test compound dissolved in acetone was applied topically on the skin surface inside the holding unit. After leaving to stand for a sufficient period of time to evaporate the acetone, about 10 American dog mites (Dermacentor variabilis) in nymph stage, to which food was not given, were put into each holding unit. Three to five rats per treatment group were used. 48 hours after the treatment, the holding unit was removed, and the surviving mites and dead mites were counted. In the evaluation of efficacy, geometric mean calculation was used. First, the total number of surviving mites was converted by the natural logarithm transformation by adding 1 (Ln total number+1). That is, by adding 1 to each total number, the total number which was zero was adjusted. The geometric mean (GM) of the total number of mites in a treatment group was obtained by inverse-transforming the mean transformation value of the total number of treatment groups and subtracting 1. The non-treated control group was used for comparison with the groups in which the test compound was given for calculation of efficacy % (reduction % in the number of surviving mites). […] Efficacy [%]=[(survival mites GM number of control−survival mites GM number of treatment groups)/(survival mites GM number of control)×100

[4] = system: American dog mites (Dermacentor variabilis); test: Parasite extermination test of dog in vivo, D. variabilis; conditions: topical spot-on 20 mg/kg, 35th day
Procedure: Each type of the test compounds was applied to four dogs. One day before treatment (−1 day) of the test compound, about 50 adults of Rhipicephalus sanguineus to which food was not given, per dog, were parasitized. It was estimated that 50% of the 50 ticks were male and 50% of the 50 ticks were female. Separately, the tested compound was dissolved in a mixed solvent consisting of 80% by volume of benzyl alcohol and 20% by volume of isopropyl myristate such that the concentration became 50 mg/ml, whereby a test solution was prepared. On zeroth day, several different spots of the interscapular region were treated with the test solution by “topical spot-on” such that the test compound was treated per 20 mg/kg per body weight of a dog. For comparison, a negative control was also prepared. Furthermore, on the 33rd day, 50 adult American dog mites (Dermacentor variabilis) to which food was not given were parasitized. On the 7th, 14th, 21 st, 30th and 35th day, 48 hours after each was parasitized, survival of the ticks and mites were observed, and the ticks and mites were removed from the dogs. The ticks were classified according to whether or not the ticks were attached, and the survival state was determined. In the evaluation of efficacy, the same geometric mean calculation as that in Test Example 2 was used. As the test compounds, 1-3, 1-5, 1-10, 1-28, 1-29, and 1-71 were used. Here, the test using American dog mites was performed on 1-28 and 1-71.

[5] = topical spot-on 20 mg/kg, 2nd day
[6] = topical spot-on 20 mg/kg, 7th day
[7] = topical spot-on 20 mg/kg, 14th day
[8] = topical spot-on 20 mg/kg, 21st day
[9] = topical spot-on 20 mg/kg, 30th day
[10] = 5 mg/kg per body weight, 2nd day
[11] = 5 mg/kg per body weight, 5th day

Compound	average number of surviving parasites ([1]; 14th day)	efficacy (%) ([1]; 14th day)	average number of surviving parasites ([1]; 30th day)	efficacy (%) ([1]; 30th day)	average number of surviving parasites [2, 5]	efficacy (%) [2, 5] [%]	average number of surviving parasites [2, 6]	efficacy (%) [2, 6] [%]	average number of surviving parasites [2, 7]	efficacy (%) [2, 7] [%]	average number of surviving parasites [2, 8]	efficacy (%) [2, 8] [%]	average number of surviving parasites [2, 9]	efficacy (%) [2, 9] [%]	pest or weed control at up to 10000 µg/mL [3] [%]	also measured
C=C1SC(=N\c2ccc(C)cc2)/C(=C/Sc2cccs2)C(C)C1(C)C (stereo not shown) [Compound 1-29]	0	100	0	100	1.3	97.3	0	100	0	100	0	100	0	100	≥ 50	
C=C1SC(=N\c2ccc(C)cc2)/C(=C/Sc2ccccc2)C(C)C1(C)C (stereo not shown) [Compound 1-28]	0	100	0	100	0.25	99.3	0	100	0	100	0	100	1.8	97.8	≥ 50	average number of surviving parasites [4]: 7.0; efficacy (%) [4]: 88.3%
C=C1SC(=N\c2ccc(C)cc2)/C(=C/Sc2ccccc2)CC12CCCCC2 [Compound 1-5]	0	100	8.8	98.2	0	100	0	100	0	100	1.8	95.4	6.5	86.8	≥ 50	
C=C1SC(=N\c2ccc(C)cc2)/C(=C/Sc2cccs2)CC1(C)C [Compound 1-10]	0	100	0	100	0.5	98.9	0	100	0	100	0.5	99.5	4.3	95.4	≥ 50	
CC(C)=C1CC(C)C(=C\SCc2ccc(Cl)cc2)/C(=N/c2ccc(C)cc2)S1 (stereo not shown) [Compound 1-71]	0	100	0	100	5.0	90	0	100	0	100	1.8	96.9	0	86.8	≥ 50	average number of surviving parasites [4]: 9.8; efficacy (%) [4]: 80.3%
C=C1SC(=N\c2ccc(C)cc2)/C(=C/Sc2ccccc2)CC1(C)C [Compound 1-3]	0	100	0	100	0.5	98.6	0	100	0	100	0	100	6.0	92.3	≥ 50	
Cc1ccc(/N=C2\SC(C)(C)CC\C2=C/Sc2cccc(C)c2)cc1 [Compound 1-31]															≥ 50	
Cc1ccc(/N=C2\SC(C)(C)CC\C2=C/Sc2ccccc2F)cc1 [Compound 1-32]															≥ 50	average number of surviving parasites [2, 10]: 0; efficacy (%) [2, 10]: (76.6%); average number of surviving parasites [2, 11]: 0; efficacy (%) [2, 11]: (100%)
